According to ChEMBL document CHEMBL3885861, “Open TG-GATES”:

Species: Rattus norvegicus
Experiment: Open TG-GATES - Regimen: Daily Repeat
Format: toxicity, organism-based, Sprague-Dawley
Parameters: regimen Daily Repeat, gender Male, age 6 weeks
Conditions: in vivo, po, 100 mg/kg, route gavage, dose level Middle; for APTT / Bas / Eos / Fbg / Hb / Ht / Lym / MCH / MCHC / MCV / Mono / Neu / PT / Plat / RBC / Ret / WBC: tissue Blood; for KIDNEY_L / KIDNEY_R / KIDNEY_TOTAL: tissue Kidney; for LIVER: tissue Liver; for A/G / ALP / ALT / AST / BUN / CRE / Ca / Cl / DBIL / GLC / IP / K / LDH / Na / PL / RALB / TBIL / TC / TG / TP / gamma-GTP: tissue Plasma

In the case of `Brc1ccccc1` [BROMOBENZENE], the TERMINAL_BW (72 h, time 3 day) is reported as 207.5 g, the APTT (72 h, time 3 day) is reported as 14.7 s and the Bas (72 h, time 3 day) is reported as 0.2%. It also gave an Eos (72 h, time 3 day) of 1%, a Fbg (72 h, time 3 day) of 300.2 mg/dL and a Hb (72 h, time 3 day) of 12.9 g/dL. For the same compound, the Ht (72 h, time 3 day) was 38.4%, the Lym (72 h, time 3 day) was 74.2% and the MCH (72 h, time 3 day) was 20.5 pg. The MCHC (72 h, time 3 day) was 33.5%, the MCV (72 h, time 3 day) was 61.1 fL and the Mono (72 h, time 3 day) was 3.5%. For the same compound, the Neu (72 h, time 3 day) was 20.5%, the PT (72 h, time 3 day) was 11.8 s and the Plat (72 h, time 3 day) was 118.8 x10_4/uL. It also gave an RBC (72 h, time 3 day) of 629 x10_4/ul, a Ret (72 h, time 3 day) of 6.2% and a WBC (72 h, time 3 day) of 95.6 x10_2/uL. The KIDNEY_L (72 h, time 3 day) was 0.9 g, the KIDNEY_R (72 h, time 3 day) was 0.9 g and the KIDNEY_TOTAL (72 h, time 3 day) was 1.8 g. The LIVER (72 h, time 3 day) was 11.6 g, the A/G (72 h, time 3 day) was 0.9 and the ALP (72 h, time 3 day) was 1811.5 IU/L. For the same compound, the ALT (72 h, time 3 day) was 56.5 IU/L, the AST (72 h, time 3 day) was 78.5 IU/L and the BUN (72 h, time 3 day) was 13 mg/dL. It also gave a CRE (72 h, time 3 day) of 0.2 mg/dL, a Ca (72 h, time 3 day) of 10.4 mg/dL and a Cl (72 h, time 3 day) of 106 meq/L. The DBIL (72 h, time 3 day) was 0.015 mg/dL, the GLC (72 h, time 3 day) was 179.8 mg/dL and the IP (72 h, time 3 day) was 6.4 mg/dL. For the same compound, the K (72 h, time 3 day) was 4.1 meq/L, the LDH (72 h, time 3 day) was 101.8 IU/L and the Na (72 h, time 3 day) was 142.2 meq/L. The PL (72 h, time 3 day) was 166.8 mg/dL, the RALB (72 h, time 3 day) was 2.7 g/dL and the TBIL (72 h, time 3 day) was 0.0575 mg/dL. For the same compound, the TC (72 h, time 3 day) was 88 mg/dL, the TG (72 h, time 3 day) was 66 mg/dL and the TP (72 h, time 3 day) was 5.7 g/dL. It also gave a gamma-GTP (72 h, time 3 day) of 1.2 IU/L, a TERMINAL_BW ([…], time 7 day) of 245.7 g and a TERMINAL_BW ([…], time 14 day) of 288.5 g. For the same compound, the TERMINAL_BW ([…], time 28 day) was 381.1 g, the APTT ([…], time 7 day) was 13.4 s and the Bas ([…], time 7 day) was 0%. For the same compound, the Eos ([…], time 7 day) was 1%, the Fbg ([…], time 7 day) was 317.4 mg/dL and the Hb ([…], time 7 day) was 13.3 g/dL. It also gave a Ht ([…], time 7 day) of 39.3%, a Lym ([…], time 7 day) of 75.8% and an MCH ([…], time 7 day) of 21.2 pg. It also gave an MCHC ([…], time 7 day) of 33.9%, an MCV ([…], time 7 day) of 62.5 fL and a Mono ([…], time 7 day) of 3%. For the same compound, the Neu ([…], time 7 day) was 19.8%, the PT ([…], time 7 day) was 12.2 s and the Plat ([…], time 7 day) was 112.7 x10_4/uL. The RBC ([…], time 7 day) was 629 x10_4/ul, the Ret ([…], time 7 day) was 6.9% and the WBC ([…], time 7 day) was 98.3 x10_2/uL. It also gave an APTT ([…], time 14 day) of 16.8 s, a Bas ([…], time 14 day) of 0% and an Eos ([…], time 14 day) of 1%. For the same compound, the Fbg ([…], time 14 day) was 326.4 mg/dL, the Hb ([…], time 14 day) was 14.2 g/dL and the Ht ([…], time 14 day) was 40.9%. It also gave a Lym ([…], time 14 day) of 78%, an MCH ([…], time 14 day) of 20.7 pg and an MCHC ([…], time 14 day) of 34.7%. The MCV ([…], time 14 day) was 59.8 fL, the Mono ([…], time 14 day) was 2.8% and the Neu ([…], time 14 day) was 18.2%. For the same compound, the PT ([…], time 14 day) was 11.9 s, the Plat ([…], time 14 day) was 113.2 x10_4/uL and the RBC ([…], time 14 day) was 685.4 x10_4/ul. It also gave a Ret ([…], time 14 day) of 4.6%, a WBC ([…], time 14 day) of 74.5 x10_2/uL and an APTT ([…], time 28 day) of 17.1 s. It also gave a Bas ([…], time 28 day) of 0%, an Eos ([…], time 28 day) of 1% and a Fbg ([…], time 28 day) of 304.8 mg/dL. The Hb ([…], time 28 day) was 14.6 g/dL, the Ht ([…], time 28 day) was 41.5% and the Lym ([…], time 28 day) was 73.8%. The MCH ([…], time 28 day) was 19.3 pg, the MCHC ([…], time 28 day) was 35.1% and the MCV ([…], time 28 day) was 55.1 fL. It also gave a Mono ([…], time 28 day) of 3%, a Neu ([…], time 28 day) of 21.2% and a PT ([…], time 28 day) of 12.9 s. The Plat ([…], time 28 day) was 109.2 x10_4/uL, the RBC ([…], time 28 day) was 754.6 x10_4/ul and the Ret ([…], time 28 day) was 2.6%. The WBC ([…], time 28 day) was 103.2 x10_2/uL, the KIDNEY_L ([…], time 7 day) was 1.1 g and the KIDNEY_R ([…], time 7 day) was 1.1 g. It also gave a KIDNEY_TOTAL ([…], time 7 day) of 2.2 g, a KIDNEY_L ([…], time 14 day) of 1.1 g and a KIDNEY_R ([…], time 14 day) of 1.1 g. The KIDNEY_TOTAL ([…], time 14 day) was 2.2 g, the KIDNEY_L ([…], time 28 day) was 1.4 g and the KIDNEY_R ([…], time 28 day) was 1.4 g. The KIDNEY_TOTAL ([…], time 28 day) was 2.7 g, the LIVER ([…], time 7 day) was 12.8 g and the LIVER ([…], time 14 day) was 13.7 g. The LIVER ([…], time 28 day) was 17 g, the A/G ([…], time 7 day) was 0.8 and the ALP ([…], time 7 day) was 1614.4 IU/L. It also gave an ALT ([…], time 7 day) of 43.4 IU/L, an AST ([…], time 7 day) of 65 IU/L and a BUN ([…], time 7 day) of 14.8 mg/dL. It also gave a CRE ([…], time 7 day) of 0.2 mg/dL, a Ca ([…], time 7 day) of 11.1 mg/dL and a Cl ([…], time 7 day) of 105.2 meq/L. For the same compound, the DBIL ([…], time 7 day) was 0.014 mg/dL, the GLC ([…], time 7 day) was 193.2 mg/dL and the IP ([…], time 7 day) was 7.1 mg/dL. For the same compound, the K ([…], time 7 day) was 4 meq/L, the LDH ([…], time 7 day) was 99.8 IU/L and the Na ([…], time 7 day) was 143 meq/L. The PL ([…], time 7 day) was 149 mg/dL, the RALB ([…], time 7 day) was 2.7 g/dL and the TBIL ([…], time 7 day) was 0.048 mg/dL. It also gave a TC ([…], time 7 day) of 71.6 mg/dL, a TG ([…], time 7 day) of 84.8 mg/dL and a TP ([…], time 7 day) of 5.9 g/dL. For the same compound, the gamma-GTP ([…], time 7 day) was 1 IU/L, the A/G ([…], time 14 day) was 0.8 and the ALP ([…], time 14 day) was 1557.8 IU/L. The ALT ([…], time 14 day) was 39.6 IU/L, the AST ([…], time 14 day) was 63.4 IU/L and the BUN ([…], time 14 day) was 14.6 mg/dL. It also gave a CRE ([…], time 14 day) of 0.2 mg/dL, a Ca ([…], time 14 day) of 10.9 mg/dL and a Cl ([…], time 14 day) of 107 meq/L. The DBIL ([…], time 14 day) was 0.008 mg/dL, the GLC ([…], time 14 day) was 185.6 mg/dL and the IP ([…], time 14 day) was 5.9 mg/dL. The K ([…], time 14 day) was 4 meq/L, the LDH ([…], time 14 day) was 56.6 IU/L and the Na ([…], time 14 day) was 143.6 meq/L. For the same compound, the PL ([…], time 14 day) was 150.4 mg/dL, the RALB ([…], time 14 day) was 2.8 g/dL and the TBIL ([…], time 14 day) was 0.046 mg/dL. For the same compound, the TC ([…], time 14 day) was 71.2 mg/dL, the TG ([…], time 14 day) was 100.6 mg/dL and the TP ([…], time 14 day) was 6.1 g/dL. For the same compound, the gamma-GTP ([…], time 14 day) was 1 IU/L, the A/G ([…], time 28 day) was 0.8 and the ALP ([…], time 28 day) was 1105.2 IU/L. For the same compound, the ALT ([…], time 28 day) was 40.8 IU/L, the AST ([…], time 28 day) was 61.8 IU/L and the BUN ([…], time 28 day) was 15.4 mg/dL. It also gave a CRE ([…], time 28 day) of 0.3 mg/dL, a Ca ([…], time 28 day) of 10.6 mg/dL and a Cl ([…], time 28 day) of 105.6 meq/L. The DBIL ([…], time 28 day) was 0.016 mg/dL, the GLC ([…], time 28 day) was 198.8 mg/dL and the IP ([…], time 28 day) was 5.8 mg/dL. For the same compound, the K ([…], time 28 day) was 3.9 meq/L, the LDH ([…], time 28 day) was 86.2 IU/L and the Na ([…], time 28 day) was 142.4 meq/L. It also gave a PL ([…], time 28 day) of 140.8 mg/dL, an RALB ([…], time 28 day) of 2.8 g/dL and a TBIL ([…], time 28 day) of 0.04 mg/dL. The TC ([…], time 28 day) was 72.8 mg/dL, the TG ([…], time 28 day) was 108.8 mg/dL and the TP ([…], time 28 day) was 6.3 g/dL. It also gave a gamma-GTP ([…], time 28 day) of 1 IU/L.
